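All cell lines were grown in 96-well plates and treated with compound for 48 hours. GI50 = concentration required for 50% inhibition of growth. TGI: total growth inhibition.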
Legend:
Assay in all cases: NCI tumour cell line growth inhibition, 48 h
[1] = test system: SK-OV-3 ovarian
[2] = test system: NCI-H522 lung
[3] = test system: SF-268 CNS
[4] = test system: NCI/ADR-RES ovarian
[5] = test system: NCI-H23 lung
[6] = test system: UACC-62 melanoma
[7] = test system: HCC-2998 colon
[8] = test system: KM12 colon
[9] = test system: CAKI-1 renal
[10] = test system: RPMI-8226 leukemia
[11] = test system: HL-60(TB) leukemia
[12] = test system: UACC-257 melanoma
[13] = test system: MDA-MB-231 breast
[14] = test system: COLO 205 colon
[15] = test system: NCI-H460 lung
[16] = test system: SK-MEL-2 melanoma
[17] = test system: HCT-116 colon
[18] = test system: MCF7 breast
[19] = test system: U251 CNS
[20] = test system: UO-31 renal
[21] = test system: MALME-3M melanoma
[22] = test system: HCT-15 colon
[23] = test system: CCRF-CEM leukemia
[24] = test system: SF-295 CNS
[25] = test system: ACHN renal
[26] = test system: HOP-92 NSCLC
[27] = test system: SK-MEL-5 melanoma
[28] = test system: MOLT-4 leukemia
[29] = test system: SNB-19 CNS
[30] = test system: OVCAR-5 ovarian
[31] = test system: MDA-MB-435
[32] = test system: TK-10 renal
[33] = test system: DU-145 prostate
[34] = test system: M14 melanoma
[35] = test system: IGROV1 ovarian
[36] = test system: HS 578T breast
[37] = test system: HOP-62 NSCLC
[38] = test system: OVCAR-8 ovarian
[39] = test system: A549 NSCLC
[40] = test system: A498 renal
[41] = test system: SR leukemia
[42] = test system: BT-549 breast
[43] = test system: OVCAR-3 ovarian
[44] = test system: K-562 leukemia
[45] = test system: EKVX NSCLC
[46] = test system: SW-620 colon
[47] = test system: OVCAR-4 ovarian
[48] = test system: LOX IMVI melanoma
[49] = test system: SK-MEL-28 melanoma
[50] = test system: SF-539 CNS
[51] = test system: HT29 colon
[52] = test system: NCI-H226 lung
[53] = test system: SNB-75 CNS
[54] = test system: 786-0 renal
[55] = test system: T-47D breast
[56] = test system: PC-3 prostate
[57] = test system: RXF 393 renal
[58] = test system: SN12C renal

## O=C1c2cccc3cccc(c23)C(=O)N1CCCCN1CCN(CCCCOc2ccc(-c3nc4ccc(N5CCOCC5)cc4[nH]3)cc2)CC1
[1]
  GI50: > 100 µM
  TGI: > 100 µM
[2]
  GI50: > 100 µM
  TGI: > 100 µM
[3]
  GI50: > 100 µM
  TGI: > 100 µM
[4]
  GI50: > 100 µM
  TGI: > 100 µM
[5]
  GI50: > 100 µM
  TGI: > 100 µM
[6]
  GI50: > 100 µM
  TGI: > 100 µM
[7]
  GI50: > 100 µM
  TGI: > 100 µM
[8]
  GI50: > 100 µM
  TGI: > 100 µM
[9]
  GI50: > 100 µM
  TGI: > 100 µM
[10]
  GI50: > 100 µM
  TGI: > 100 µM
[11]
  GI50: 4.62 µM
  TGI: > 100 µM
[12]
  GI50: 15 µM
  TGI: > 100 µM
[13]
  GI50: 9.16 µM
  TGI: > 100 µM
[14]
  GI50: > 100 µM
  TGI: > 100 µM
[15]
  GI50: > 100 µM
  TGI: > 100 µM
[16]
  GI50: > 100 µM
  TGI: > 100 µM
[17]
  GI50: > 100 µM
  TGI: > 100 µM
[18]
  GI50: > 100 µM
  TGI: > 100 µM
[19]
  GI50: 7.93 µM
  TGI: > 100 µM
[20]
  GI50: > 100 µM
  TGI: > 100 µM
[21]
  GI50: 29.5 µM
  TGI: > 100 µM
[22]
  GI50: 56.2 µM
  TGI: > 100 µM
[23]
  GI50: > 100 µM
  TGI: > 100 µM
[24]
  GI50: > 100 µM
  TGI: > 100 µM
[25]
  GI50: 3.19 µM
  TGI: > 100 µM
[26]
  GI50: > 100 µM
  TGI: > 100 µM
[27]
  GI50: 9.1 µM
  TGI: > 100 µM
[28]
  GI50: 3.76 µM
  TGI: > 100 µM
[29]
  GI50: > 100 µM
  TGI: > 100 µM
[30]
  GI50: > 100 µM
  TGI: > 100 µM
[31]
  GI50: > 100 µM
  TGI: > 100 µM
[32]
  GI50: > 100 µM
  TGI: > 100 µM
[33]
  GI50: > 100 µM
  TGI: > 100 µM
[34]
  GI50: > 100 µM
  TGI: > 100 µM
[35]
  GI50: 61.9 µM
  TGI: > 100 µM
[36]
  GI50: > 100 µM
  TGI: > 100 µM
[37]
  GI50: > 100 µM
  TGI: > 100 µM
[38]
  GI50: 8.8 µM
  TGI: > 100 µM
[39]
  GI50: > 100 µM
  TGI: > 100 µM
[40]
  GI50: > 100 µM
  TGI: > 100 µM
[41]
  GI50: 1.68 µM
  TGI: 3.9 µM
[42]
  GI50: 35.4 µM
  TGI: > 100 µM
[43]
  GI50: 12.1 µM
  TGI: > 100 µM
[44]
  GI50: 4.35 µM
  TGI: > 100 µM
[45]
  GI50: > 100 µM
  TGI: > 100 µM
[46]
  GI50: > 100 µM
  TGI: > 100 µM
[47]
  GI50: > 100 µM
  TGI: > 100 µM
[48]
  GI50: 9.78 µM
  TGI: > 100 µM
[49]
  GI50: 66 µM
  TGI: > 100 µM
[50]
  GI50: > 100 µM
  TGI: > 100 µM
[51]
  GI50: > 100 µM
  TGI: > 100 µM
[52]
  GI50: > 100 µM
  TGI: > 100 µM
[53]
  GI50: > 100 µM
  TGI: > 100 µM
[54]
  GI50: > 100 µM
  TGI: > 100 µM
[55]
  GI50: 15.3 µM
  TGI: > 100 µM

## c1nc(SSc2ncnc3nc[nH]c23)c2[nH]cnc2n1
[1]
  TGI: > 100 µM
[2]
  TGI: > 100 µM
[3]
  TGI: > 29.2 µM
[4]
  TGI: > 30.5 µM
[5]
  TGI: 9.54 µM
[6]
  TGI: 0.0568 µM
[8]
  TGI: > 44.1 µM
[9]
  TGI: 1.07 µM
[10]
  TGI: > 100 µM
[11]
  TGI: > 100 µM
[12]
  TGI: > 100 µM
[13]
  TGI: > 56.5 µM
[14]
  TGI: > 100 µM
[15]
  TGI: > 100 µM
[16]
  TGI: > 100 µM
[17]
  TGI: > 100 µM
[19]
  TGI: > 100 µM
[20]
  TGI: > 100 µM
[21]
  TGI: 18.5 µM
[22]
  TGI: > 100 µM
[23]
  TGI: > 100 µM
[24]
  TGI: 43.7 µM
[25]
  TGI: > 100 µM
[26]
  TGI: > 100 µM
[27]
  TGI: 37.6 µM
[28]
  TGI: > 40.4 µM
[29]
  TGI: > 100 µM
[30]
  TGI: > 65.2 µM
[56]
  TGI: > 100 µM
[31]
  TGI: > 85.3 µM
[57]
  TGI: > 100 µM
[33]
  TGI: > 100 µM
[34]
  TGI: > 68.7 µM
[35]
  TGI: > 100 µM
[36]
  TGI: > 100 µM
[37]
  TGI: > 100 µM
[38]
  TGI: > 100 µM
[39]
  TGI: > 100 µM
[40]
  TGI: > 100 µM
[41]
  TGI: > 41.6 µM
[42]
  TGI: > 100 µM
[43]
  TGI: > 33.6 µM
[44]
  TGI: > 100 µM
[45]
  TGI: > 100 µM
[46]
  TGI: > 100 µM
[47]
  TGI: > 100 µM
[58]
  TGI: > 73.3 µM
[48]
  TGI: 20.4 µM
[49]
  TGI: > 100 µM
[50]
  TGI: > 100 µM
[51]
  TGI: > 100 µM
[52]
  TGI: > 100 µM
[53]
  TGI: > 100 µM
[54]
  TGI: > 100 µM
[55]
  TGI: > 100 µM
